From patent US20160010086A1, “OLIGOMERIC COMPOUNDS AND EXCIPIENTS” (ISIS PHARMACEUTICALS, INC., priority 2009, published 2016) come the findings set out here.

The conditions of data set [1]: mouse, in vivo.
A further data set relates to PTEN mRNA. Put plainly: Antisense activity (pharmacodynamics) of ISIS 116847 in mouse liver. The format is in vivo, mice. On the procedure: Tissues are homogenized in guanidine isothyocyanate buffer (4 M guanidine isothiocyanate, 25 mM EDTA, 1 M β-mercaptoethanol, 50 mM Tris-HCl, pH 6) immediately following sacrifice. RNA is extracted using RNeasy columns (Qiagen) according to manufacturer's protocol. RNA is eluted from the columns with water. RNA samples are analyzed by fluorescence-based quantitative RT-PCR using an Applied Biosystems 7700 sequence detector. Levels of target RNAs as well as those of cyclophilin A, a housekeeping gene, are determined. Target RNA levels were normalized to cyclophilin levels for each RNA sample. Primers used for determination of PTEN RNA level are as follows: FP 5′ […] 3′ (SEQ ID NO: 3), RP 5′ […] 3′ (SEQ ID NO: 4), and PR 5′ 6FAM-[…]-TAMRA 3′(SEQ ID NO 5). Primers used for determination of cyclophilin A RNA level are as follows: FP 5′ TCGCCGCTTGCTGCA 3′(SEQ ID NO: 6), RP 5′ ATCGGCCGTGATGTCGA 3′(SEQ ID NO: 7), and PR 5′ 6FAM-[…]-TAMRA 3′(SEQ ID NO: 8).

Consider “5′-CTGCT agcctctgga TTTGA-3′ (CTGCTAGCCTCTGGATTTGA; chemistry not given here) [ISIS 116847]”, for which, in data set [1], the “uptake in whole liver” value is given as “favored at lower plasma concentrations”. Further, in the data set with PTEN mRNA (co-administered with a nonsense oligonucleotide), the “activity of the active antisense oligonucleotide” value is given as “enhanced”. Moreover, the “pharmacodynamics with increased liver drug concentration” value in the data set with PTEN mRNA (slower infusion, lowest doses) was “did not provide improved pharmacodynamics”.
